Reference: PubChem BioAssay (NCI)
Several values for one entry are separate records, joined by “and”; a condition that tells them apart may be missing. Equal entries are not always repeated.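 Each compound was tested at five concentrations against cells in 96-well plates for 48 hours. Abbreviation: GI50, concentration required for 50% inhibition of growth. At the TGI there is no net growth.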

Columns and labels:
Experiment in all cases: growth of human tumour cells (NCI), 48 h
786-0 renal = system: 786-0 renal
A498 renal = system: A498 renal
A549 NSCLC = system: A549 NSCLC
ACHN renal = system: ACHN renal
BT-549 breast = system: BT-549 breast
CAKI-1 renal = system: CAKI-1 renal
CCRF-CEM leukemia = system: CCRF-CEM leukemia
DLD-1 colon = system: DLD-1 colon
DU-145 prostate = system: DU-145 prostate
EKVX NSCLC = system: EKVX NSCLC
HCC-2998 colon = system: HCC-2998 colon
HCT-116 colon = system: HCT-116 colon
HCT-15 colon = system: HCT-15 colon
HL-60(TB) leukemia = system: HL-60(TB) leukemia
HOP-62 NSCLC = system: HOP-62 NSCLC
HS 578T breast = system: HS 578T breast
HT29 colon = system: HT29 colon
IGROV1 ovarian = system: IGROV1 ovarian
K-562 leukemia = system: K-562 leukemia
KM12 colon = system: KM12 colon
KM20L2 colon = system: KM20L2 colon
LOX IMVI melanoma = system: LOX IMVI melanoma
LXFL 529 NSCLC = system: LXFL 529 NSCLC
M14 melanoma = system: M14 melanoma
M19-MEL melanoma = system: M19-MEL melanoma
MALME-3M melanoma = system: MALME-3M melanoma
MCF7 breast = system: MCF7 breast
MDA-MB-231 breast = system: MDA-MB-231 breast
MDA-MB-435 = system: MDA-MB-435
MDA-N = system: MDA-N
MOLT-4 leukemia = system: MOLT-4 leukemia
NCI-H226 lung = system: NCI-H226 lung
NCI-H23 lung = system: NCI-H23 lung
NCI-H460 lung = system: NCI-H460 lung
NCI/ADR-RES ovarian = system: NCI/ADR-RES ovarian
OVCAR-3 ovarian = system: OVCAR-3 ovarian
OVCAR-4 ovarian = system: OVCAR-4 ovarian
OVCAR-5 ovarian = system: OVCAR-5 ovarian
PC-3 prostate = system: PC-3 prostate
RPMI-8226 leukemia = system: RPMI-8226 leukemia
RXF 393 renal = system: RXF 393 renal
SF-268 CNS = system: SF-268 CNS
SF-295 CNS = system: SF-295 CNS
SF-539 CNS = system: SF-539 CNS
SK-MEL-28 melanoma = system: SK-MEL-28 melanoma
SK-MEL-5 melanoma = system: SK-MEL-5 melanoma
SK-OV-3 ovarian = system: SK-OV-3 ovarian
SN12C renal = system: SN12C renal
SNB-19 CNS = system: SNB-19 CNS
SNB-75 CNS = system: SNB-75 CNS
SW-620 colon = system: SW-620 colon
T-47D breast = system: T-47D breast
TK-10 renal = system: TK-10 renal
UACC-257 melanoma = system: UACC-257 melanoma
UACC-62 melanoma = system: UACC-62 melanoma
UO-31 renal = system: UO-31 renal
XF 498 CNS = system: XF 498 CNS
COLO 205 colon = system: COLO 205 colon
HOP-92 NSCLC = system: HOP-92 NSCLC
NCI-H522 lung = system: NCI-H522 lung
OVCAR-8 ovarian = system: OVCAR-8 ovarian
SK-MEL-2 melanoma = system: SK-MEL-2 melanoma
SR leukemia = system: SR leukemia
U251 CNS = system: U251 CNS

`CC(=O)O[C@H]1C(=O)[C@@]2(C)C([C@H](OC(=O)c3ccccc3)[C@]3(O)C[C@H](OC(=O)[C@H](O)[C@@H](NC(=O)c4ccc(Cl)cc4)c4ccccc4)C(C)=C1C3(C)C)C1(OC(C)=O)CO[C@@H]1C[C@@H]2O` (some centres not stated) was tested, and the GI50 (786-0 renal) was 0.045 µM, the TGI (786-0 renal) was 3.09 µM and 29.7 µM and the GI50 (A498 renal) was 11.1 µM. The TGI (A498 renal) was 25 µM and > 100 µM, the GI50 (A549 NSCLC) was 0.0219 µM and the TGI (A549 NSCLC) was 25 µM and > 100 µM. For the same compound, the GI50 (ACHN renal) was 10.3 µM, the TGI (ACHN renal) was 25 µM and > 100 µM and the TGI (BT-549 breast) was 0.212 µM. For the same compound, the GI50 (CAKI-1 renal) was 0.0269 µM, the TGI (CAKI-1 renal) was 25 µM and 32.3 µM and the TGI (CCRF-CEM leukemia) was 52.2 µM. The TGI (DLD-1 colon) was > 100 µM, the TGI (DU-145 prostate) was 0.452 µM and the GI50 (EKVX NSCLC) was 1.11 µM. The TGI (EKVX NSCLC) was 25 µM and > 100 µM, the TGI (HCC-2998 colon) was 0.608 µM and the TGI (HCT-116 colon) was 3.31 µM and 1.85 µM. The GI50 (HCT-15 colon) was 0.2 µM, the TGI (HCT-15 colon) was 25 µM and 4.92 µM and the TGI (HL-60(TB) leukemia) was 0.00466 µM. For the same compound, the GI50 (HOP-62 NSCLC) was 0.261 µM, the TGI (HOP-62 NSCLC) was 25 µM and 25.2 µM and the TGI (HS 578T breast) was 0.185 µM. For the same compound, the TGI (HT29 colon) was 10.4 µM, the GI50 (IGROV1 ovarian) was 0.0134 µM and the TGI (IGROV1 ovarian) was 25 µM and 28.2 µM. The TGI (K-562 leukemia) was > 25 µM and 12.5 µM, the TGI (KM12 colon) was 25 µM and the TGI (KM20L2 colon) was > 100 µM. The TGI (LOX IMVI melanoma) was 49.6 µM, the TGI (LXFL 529 NSCLC) was 57.2 µM and the TGI (M14 melanoma) was 0.733 µM. For the same compound, the TGI (M19-MEL melanoma) was 14.1 µM, the GI50 (MALME-3M melanoma) was 0.0599 µM and the TGI (MALME-3M melanoma) was 25 µM and 24.1 µM. For the same compound, the TGI (MCF7 breast) was 25 µM, the TGI (MDA-MB-231 breast) was 25 µM and the TGI (MDA-MB-435) was 0.0126 µM. For the same compound, the TGI (MDA-N) was 0.0195 µM, the TGI (MOLT-4 leukemia) was 25 µM and 4.77 µM and the TGI (NCI-H226 lung) was 25 µM. The TGI (NCI-H23 lung) was 25 µM and > 100 µM, the TGI (NCI-H460 lung) was 25 µM and > 100 µM and the TGI (NCI/ADR-RES ovarian) was 25 µM. For the same compound, the TGI (OVCAR-3 ovarian) was 0.108 µM, the GI50 (OVCAR-4 ovarian) was 4.89 µM and the TGI (OVCAR-4 ovarian) was 25 µM and 68 µM. For the same compound, the TGI (OVCAR-5 ovarian) was 25 µM, the TGI (PC-3 prostate) was 0.217 µM and the TGI (RPMI-8226 leukemia) was 11.7 µM. For the same compound, the GI50 (RXF 393 renal) was 0.157 µM, the TGI (SF-268 CNS) was 25 µM and 82.5 µM and the GI50 (SF-295 CNS) was 0.177 µM. The GI50 (SF-539 CNS) was 0.0119 µM, the TGI (SF-539 CNS) was 0.273 µM and 0.0407 µM and the TGI (SK-MEL-28 melanoma) was 25 µM. For the same compound, the TGI (SK-MEL-5 melanoma) was 13.5 µM, the TGI (SK-OV-3 ovarian) was 13.7 µM and 36.7 µM and the GI50 (SN12C renal) was 0.0166 µM. For the same compound, the TGI (SN12C renal) was 25 µM and 83.2 µM, the GI50 (SNB-19 CNS) was 0.0849 µM and the TGI (SNB-19 CNS) was 25 µM and > 100 µM. The TGI (SNB-75 CNS) was 0.603 µM and 0.178 µM, the TGI (SW-620 colon) was 25 µM and > 100 µM and the TGI (T-47D breast) was 25 µM. For the same compound, the GI50 (TK-10 renal) was 0.254 µM, the TGI (TK-10 renal) was 25 µM and 47.7 µM and the GI50 (UACC-257 melanoma) was 0.013 µM. For the same compound, the TGI (UACC-257 melanoma) was 25 µM and 36.8 µM, the TGI (UACC-62 melanoma) was 0.178 µM and the GI50 (UO-31 renal) was 4.77 µM. For the same compound, the TGI (UO-31 renal) was 25 µM and 53.8 µM and the TGI (XF 498 CNS) was 3.73 µM.

With `Cc1cc(C)nc(NS(=O)(=O)c2ccc(NC(=O)c3ccc4nc5ccccc5c(Nc5ccc(S(=O)(=O)N=C(N)N)cc5)c4c3)cc2)n1` the TGI (786-0 renal) was > 100 µM, the TGI (A549 NSCLC) was > 100 µM and the TGI (ACHN renal) was > 100 µM. For the same compound, the TGI (BT-549 breast) was > 100 µM, the TGI (CAKI-1 renal) was > 100 µM and the TGI (CCRF-CEM leukemia) was > 100 µM. The TGI (COLO 205 colon) was > 100 µM, the TGI (DU-145 prostate) was > 100 µM and the TGI (EKVX NSCLC) was > 100 µM. The TGI (HCC-2998 colon) was > 100 µM, the TGI (HCT-116 colon) was > 100 µM and the TGI (HCT-15 colon) was > 100 µM. For the same compound, the TGI (HL-60(TB) leukemia) was > 100 µM, the TGI (HOP-62 NSCLC) was > 100 µM and the TGI (HOP-92 NSCLC) was > 100 µM. For the same compound, the TGI (HS 578T breast) was > 100 µM, the TGI (HT29 colon) was > 100 µM and the TGI (IGROV1 ovarian) was > 100 µM. The TGI (K-562 leukemia) was > 100 µM, the TGI (KM12 colon) was > 100 µM and the TGI (LOX IMVI melanoma) was > 100 µM. For the same compound, the TGI (M14 melanoma) was > 100 µM, the TGI (MALME-3M melanoma) was > 100 µM and the TGI (MCF7 breast) was > 100 µM. The TGI (MDA-MB-231 breast) was > 100 µM, the TGI (MDA-MB-435) was > 100 µM and the TGI (MDA-N) was > 100 µM. For the same compound, the TGI (MOLT-4 leukemia) was > 100 µM, the TGI (NCI-H226 lung) was > 100 µM and the TGI (NCI-H23 lung) was > 100 µM. The TGI (NCI-H460 lung) was > 100 µM, the TGI (NCI-H522 lung) was > 100 µM and the TGI (NCI/ADR-RES ovarian) was > 100 µM. For the same compound, the TGI (OVCAR-3 ovarian) was > 100 µM, the TGI (OVCAR-4 ovarian) was > 100 µM and the TGI (OVCAR-5 ovarian) was > 100 µM. The TGI (OVCAR-8 ovarian) was > 100 µM, the TGI (PC-3 prostate) was > 100 µM and the TGI (RPMI-8226 leukemia) was > 100 µM. For the same compound, the TGI (RXF 393 renal) was > 100 µM, the TGI (SF-268 CNS) was > 100 µM and the TGI (SF-295 CNS) was > 100 µM. For the same compound, the TGI (SF-539 CNS) was > 100 µM, the TGI (SK-MEL-2 melanoma) was > 100 µM and the TGI (SK-MEL-28 melanoma) was > 100 µM. The TGI (SK-MEL-5 melanoma) was > 100 µM, the TGI (SK-OV-3 ovarian) was > 100 µM and the TGI (SN12C renal) was > 100 µM. For the same compound, the TGI (SNB-19 CNS) was > 100 µM, the TGI (SNB-75 CNS) was > 100 µM and the TGI (SR leukemia) was > 100 µM. The TGI (SW-620 colon) was > 100 µM, the TGI (T-47D breast) was > 100 µM and the TGI (TK-10 renal) was > 100 µM. For the same compound, the TGI (U251 CNS) was > 100 µM, the TGI (UACC-257 melanoma) was > 100 µM and the TGI (UACC-62 melanoma) was > 100 µM. The TGI (UO-31 renal) was > 100 µM.
